Experimental data published in patent publication US20090098110A1, “INJECTABLE FORMS OF SOLID-FORMING CROSSLINKED BIOELASTIC BIOPOLYMERS FOR LOCAL DRUG DELIVERY” (Duke University, priority 2007, published 2009).
Counter-ions that a name gives are not always drawn.

What was measured:
[1] = Antibiotic release from the crosslinked bioelastomer constructs into PBS at 37° C, UV/Vis of supernatant; assay type: physicochemical; conditions: ELP 150 mg/ml
[2] = reported value, organism not stated; cited from earlier work
[3] = tested on: Bacillus subtilis (ATCC 6633); assay: Agar disk bioassay (zone of inhibition) of antibiotics released from the crosslinked bioelastomer constructs; assay type: cell-based; conditions: for active compound concentration corresponding to zone of inhibition: day 1 supernatant; for active compound concentration corresponding to zone of inhibition / active drug concentration corresponding to zone of inhibition: vs serial dilutions
Description: To determine if the eluted antibiotics remained active, bioassays were performed in triplicate, for a subset of samples, using Bacillus subtilis (ATCC 6633) for both vancomycin and cefazolin. Vancomycin supernatants from days 1, 7, 14, 21, and 28, as well as a sample of the final construct (following resolubilization) were tested against vancomycin serial dilutions of 5 mg/ml, 1 mg/ml, 0.5 mg/ml, 0.1 mg/ml, and 0.05 mg/ml. […] Bacterial suspensions were prepared in tryptic soy broth following the recommendations set forth by the manufacturer for Bacillus subtilis (Lyfo Disk, MicroBiologics, St. Cloud, Minn.). After 30 minutes of incubation at 37° C. the suspensions were swabbed onto petri dishes containing Mueller-Hinton agar. Twenty microliters of each supernatant were pipetted onto 6 mm filter paper disks applied to the surface of the agar. The plates were incubated for 18 hours at 37° C. After incubation, zones of inhibition were measured twice in two randomly chosen directions. Supernatants from ELP control samples were tested in this same manner.

Structure (SMILES): Cc1nnc(SCC2=C(C(=O)[O-])N3C(=O)[C@@H](NC(=O)Cn4cnnn4)[C@H]3SC2)s1.[Na+] [cefazolin, cefazolin sodium salt]
- time in which the majority of cefazolin release took place ([1]; cefazolin-loaded ELP constructs): initial two or three days
- minimal inhibitory concentration [2]: 0.25 to 1 µg/mL
- active compound concentration corresponding to zone of inhibition ([3]; cefazolin released from crosslinked construct): ~2 mg/mL
- active drug concentration corresponding to zone of inhibition ([3]; cefazolin released from crosslinked construct, day 3 supernatant): less than 0.5 mg/ml
- zone of bacterial growth inhibition, biological activity of released cefazolin ([3]; supernatants of days 1-4 and final homogenized construct, all samples tested): biologically active

Structure (SMILES): CN[C@H](CC(C)C)C(=O)N[C@H]1C(=O)N[C@@H](CC(N)=O)C(=O)N[C@H]2C(=O)N[C@H]3C(=O)N[C@H](C(=O)N[C@H](C(=O)O)c4cc(O)cc(O)c4-c4cc3ccc4O)[C@H](O)c3ccc(c(Cl)c3)Oc3cc2cc(c3O[C@@H]2O[C@H](CO)[C@@H](O)[C@H](O)[C@H]2O[C@H]2C[C@](C)(N)[C@H](O)[C@H](C)O2)Oc2ccc(cc2Cl)[C@H]1O [vancomycin, vancomycin hydrochloride]
- time period over which the ELP constructs release antibiotic ([1]; cefazolin-loaded ELP constructs, PBS 37° C, supernatant replaced days 1-10): ≥ 10 days
- time period over which the crosslinked ELP constructs release vancomycin ([1]; vancomycin-loaded crosslinked ELP constructs, PBS 37° C, supernatant replaced): ≥ 28 days
- minimal inhibitory concentration [2]: 1.5 to 3 µg/mL
- zone of bacterial growth inhibition, biological activity of released vancomycin ([3]; all supernatants tested (days 1, 7, 14, 21, 28) and homogenized final sample): retained biological activity
- active compound concentration corresponding to zone of inhibition ([3]; vancomycin released from crosslinked construct): ~1 mg/mL
- active drug concentration corresponding to zone of inhibition ([3]; vancomycin released from crosslinked construct, day 7 supernatant): less than 0.1 mg/ml
